Source: paper PMC3144881, “Computational Reverse-Engineering of a Spider-Venom Derived Peptide Active Against Plasmodium falciparum SUB1” (PLoS ONE, 2011)

Assays:
[1] = tested on: P. falciparum 3D7 segmented schizonts (egress/invasion); test: Merozoite egress/invasion assay, synchronized schizonts, flow cytometry (YOYO-1); format: cell-based, Plasmodium falciparum; details: 10 μM E64, 12 hr, 0.5% segmented schizonts, vs mock control
[2] = tested on: P. falciparum 3D7 segmented schizonts (egress/invasion); details: cited from earlier work
Description: A synchronised culture composed of segmented schizontes of P. falciparum (3D7 clone) at 0.5% parasitemia and 1% hematocrit is performed in a 24 wells plate. An aliquot corresponding to 10% of the starting culture (T ) is diluted in a solution at 0.04% of glutaraldehyde in PBS (Dulbecco) and store at 4 C for further flow cytometry analysis.

recombinant PfSUB1 [3] = target: T1, recombinant PfSUB1 (Plasmodium falciparum, UniProt Q8I0V0); test: Enzymatic test: inhibition of recombinant PfSUB1, Dabsyl/Edans peptide substrate; format: biochemical; details: translated from the measured PfSUB1 Ki
T1 construct: Culture supernatant containing the secreted and active PvSUB1 or PfSUB1 recombinant enzymes was harvested; 6xHis (C); made in house; host or cells: Sf9 insect cells (baculovirus)

[4] = tested on: P. falciparum clone 3D7 (asynchronous culture); details: read-out: EC50 on the asynchronous culture of P. falciparum intra-erythrocytic cycle; ± 6 (SEM); clone 3D7, 0,5% parasitemia, 1% hematocrit, 48 hours contact, 10 μM hypoxanthine, 37 °C
Description: Asexual cultures of reference clone 3D7 obtained from MR4 (www.MR4.org) was maintained in continuous cultures following the method of Trager an Jensen, except that the medium was composed of RPMI 1640 medium supplemented with 10% decomplemented human serum (AB+), hypoxanthine 100 [drawing 51] M, gentamycin […]. Parasites were incubated at 37 [drawing 52] C in an atmosphere composed of 5%O [drawing 53] , 5%CO [drawing 54] and 90%N [drawing 55] . […] EC [drawing 57] have been determined following nonlinear regression analysis using HN-NonLin V1.1 software (http://malaria.farch.net).

P. falciparum = details: intra-erythrocytic cycle; cited from earlier work
fungi, bacteria = details: cited from earlier work
Source text: (§1) In addition to therapies based on small molecules such as chloroquine, artemisinins, quinine and atovaquone, the development of new classes of molecules based on proteins or peptidomimetics [8] is an active field of research. […] Choi et al. have isolated from the ven ...

human epithelial cells = details: cited from earlier work
Source text: as §1

[5] = target: T2, recombinant Plasmodium vivax SUB1 (PvSUB1) (Plasmodium vivax, UniProt E6Y8B9); design: method as in Bouillon et Giganti et al, in preparation; details: ± 1,7; substrate cleaved between the two aspartates, Dabsyl/Edans; ref Bouillon et Giganti et al, in preparation; read-out: apparent Km of PvSUB1 for its substrate; cited from earlier work
T2 construct: Culture supernatant containing the secreted and active PvSUB1 or PfSUB1 recombinant enzymes was harvested; 6xHis (C); made in house; host or cells: Sf9 insect cells (baculovirus)

recombinant PfSUB1 [6] = target: T1, recombinant PfSUB1; design: method as in 2 sources, ref 22 = [22]; PMID 12764150; doi:10.1074/jbc.M303827200; 22 Jean L Hackett F Martin SR Blackman MJ 2003 Functional characterization of the propeptide of Plasmodium falciparum subtilisin-like protease-1. J Biol Chem 278 28572 9 12764150 10.1074/jbc.M30382720 ||| ref Bouillon et Giganti et al, in preparation; details: ± 3,4; substrate cleaved between D and N, Dabsyl/Edans; ref Bouillon et Giganti et al, in preparation; read-out: apparent Km of PfSUB1 for its substrate; cited from earlier work
[7] = target: recombinant Plasmodium falciparum subtilisin-like serine protease SUB1 (PfSUB1), purified and active (Plasmodium falciparum) (UniProt Q8I0V0)
[8] = target: recombinant Plasmodium falciparum subtilisin-like serine protease SUB1 (PfSUB1), purified and active (Plasmodium falciparum) (UniProt Q8I0V0); remark: listed apart in the source
[9] = target: recombinant Plasmodium falciparum subtilisin-like serine protease SUB1 (PfSUB1), purified and active (Plasmodium falciparum) (UniProt Q8I0V0); test: enzyme inhibition assay (Dabsyl/Edans quenched fluorescent peptide substrate); 13 ng purified PvSUB1 or PfSUB1, 25 uM substrate, 20 mM Tris pH 7.5, 25 mM CaCl2, 37 C; inhibitor at ten concentrations from 1 mM to 2 uM; fluorescence read every 3 min for 90 min; N = 3
[10] = target: recombinant Plasmodium vivax SUB1 (PvSUB1), purified and active (Plasmodium vivax) (UniProt E6Y8B9); test: as above

## CC(C)C[C@H](NC(=O)[C@H]1O[C@@H]1C(=O)O)C(=O)NCCCCN=C(N)N (relative stereo) [E64, trans-Epoxysuccinyl-L-leucylamido(4-guanidino)butane]
[1]
  inhibition of newly formed trophozoites and equivalent segmented schizont accumulation: 91.6%
[2]
  block of egress of P. falciparum merozoites in vitro: known to block the egress of P. falciparum merozoites in vitro

## CC[C@H](C)[C@@H]1NC(=O)CNC(=O)[C@@H](NC(=O)[C@H](C)N)CSSC[C@@H]2NC(=O)[C@@H]3CSSC[C@@H](C(=O)N[C@@H](CC(C)C)C(=O)N[C@H](C(=O)N[C@@H](CCC(N)=O)C(=O)N[C@H](C(=O)N[C@@H](CO)C(=O)O)C(C)C)C(C)C)NC(=O)[C@H](CCCCN)NC(=O)CNC(=O)[C@H](Cc4ccc(O)cc4)NC(=O)[C@H](CCCNC(=N)N)NC(=O)[C@H](CSSC[C@H](NC(=O)[C@H](CC(N)=O)NC(=O)[C@H](CC(=O)O)NC(=O)[C@H](Cc4c[nH]cn4)NC(=O)[C@H](CC(C)C)NC1=O)C(=O)N[C@@H](C(C)C)C(=O)N[C@@H](Cc1ccc(O)cc1)C(=O)N[C@@H](C(C)C)C(=O)N1CCC[C@H]1C(=O)N[C@@H](C)C(=O)N[C@@H](CCC(N)=O)C(=O)N[C@@H](CC(N)=O)C(=O)N1CCC[C@H]1C(=O)N3)NC(=O)[C@H](CCC(N)=O)NC(=O)[C@H](CC(C)C)NC(=O)CNC(=O)[C@H](CCCNC(=N)N)NC2=O [PcFK1]
Recombinant PfSUB1 [3]
  free energy of binding translated from Ki value: -6.37 kcal/mol
[4]
  EC50: 116 µM
P. falciparum
  IC50, growth of P. falciparum: low micromolar range
fungi, bacteria
  antifungal or antibacterial activity: no antifungal or antibacterial activity
Human epithelial cells
  effect on growth or viability of human epithelial cells: nor do they affect the growth or viability of human epithelial cells

## KLVGADDVSLA [PvSUB1 peptide substrate with fluorophore/quencher Dabsyl/Edans at each edge]
[5]
  Km: 19.7 µM

## KLVSADNIDIS [PfSUB1 peptide substrate with fluorophore/quencher Dabsyl/Edans at each edge]
Recombinant PfSUB1 [6]
  Km: 30.2 µM

## Psalmopeotoxin I (PcFK1), chemically synthesized with an extra serine at the C-term (from UniProt P0C201 52-86) (peptide)
[7]
  EC50 of PcFK1 on the asynchronous culture of P. falciparum intra-erythrocytic cycle (clone 3D7, 48 hours with the drug): 116 µM
[8]
  inhibition of newly formed trophozoites (merozoite egress/invasion, synchronized P. falciparum culture, 12 hr, flow cytometry) at 200 uM PcFK1, compared to the mock control: 56.2%
[9]
  Ki: 29.3 µM
[10]
  Ki: 36.3 µM
